For one test, the system named is MV4;11 cells. In words: Cell viability assay (CellTiter-Glo) in MV4;11 cells, alone or with gilteritinib. The class given is cell-based. The note with it: Homo sapiens, MV4;11 cells, three days, CellTiter-Glo, read-out: MV4.
The next test has as its system MOLM-13 cells. Briefly: Cell viability assay (CellTiter-Glo) in MOLM-13 cells, alone or with gilteritinib. Format: cell-based. The note with it: Homo sapiens, MOLM-13 cells, three days, CellTiter-Glo.
Setting [1] is: MV4-11, 72 h, compound alone (without gilteritinib), 11 IC50.
The mark [2] stands for this setting: MV4-11, 72 h, with gilteritinib 10 nM, 11 IC50 gilteritinib.
The mark [3] stands for this setting: MOLM-13, 72 h, compound alone (without gilteritinib), read-out: MOLM-13 IC50.
The mark [4] stands for this setting: MOLM-13, 72 h, with gilteritinib 20 nM, read-out: MOLM-13 IC50 gilteritinib.
[5] abbreviates: MV4-11, 72 h, compound with gilteritinib 10 nM, 11 IC50 gilteritinib.
Where [6] appears, read: MOLM-13, 72 h, compound with gilteritinib 20 nM, read-out: MOLM-13 IC50 gilteritinib.
Where [7] appears, read: 72 h, compound alone (without gilteritinib), 11 IC50.
The mark [8] stands for this setting: 72 h, with gilteritinib 10 nM, 11 IC50 gilteritinib.
The mark [9] stands for this setting: 72 h, compound alone (without gilteritinib), read-out: MOLM-13 IC50.
Setting [10] is: 72 h, with gilteritinib 20 nM, read-out: MOLM-13 IC50 gilteritinib.

Structures are written as SMILES. Where two headings read alike, the source gives them in different places.

For the compound `Nc1cccc(-c2cn([C@H]3C[C@H](CNc4ccc5c(c4)C(=O)N(C4CCC(=O)NC4=O)C5=O)C3)nc2C2CC2)n1` (stereo partly drawn) [GS-273, 5-(((trans-3-(4-(6-aminopyridin-2-yl)-3-cyclopropyl-1H-pyrazol-1-yl)cyclobutyl)methyl)amino)-2-(2,6-dioxopiperidin-3-yl)isoindoline-1,3-dione], the IC50 in the test on MV4;11 cells (setting [1]) was 100 to 1000 nM; in the test with MV4;11 cells (setting [2]), 10 to 100 nM; in the test with MOLM-13 cells (setting [3]), > 1000 nM; in the test on MOLM-13 cells (setting [4]), 100 to 1000 nM.
Take `O=C1CCC(N2C(=O)c3ccc(NCCCCC(=O)N4CCC(c5cnc6ccccc6n5)CC4)cc3C2=O)C(=O)N1` (stereo not drawn) [GS-545, 2-(2,6-Dioxopiperidin-3-yl)-5-((5-oxo-5-(4-(quinoxalin-2-yl)piperidin-1-yl)pentyl)amino)isoindoline-1,3-dione]: the IC50 in the test on MV4;11 cells (setting [1]) is > 1000 nM; in the test on MV4;11 cells (setting [5]) it was 100 to 1000 nM; with MOLM-13 cells (setting [3]), 100 to 1000 nM; with MOLM-13 cells (setting [6]), 10 to 100 nM.
Turning to `O=C1CCC(N2Cc3c(Nc4ccnc(Nc5cccc(N6CCC(c7ccccn7)CC6)c5)n4)cccc3C2=O)C(=O)N1` (stereo not drawn) [GS-077, 3-(1-Oxo-4-((2-((3-(4-(pyridin-2-yl)piperidin-1-yl)phenyl)amino)pyrimidin-4-yl)amino)isoindolin-2-yl)piperidine-2,6-dione], the IC50 in the test on MV4;11 cells (setting [1]) is < 10 nM; with MV4;11 cells (setting [2]), < 10 nM; in the test on MOLM-13 cells (setting [3]), 10 to 100 nM; in the test with MOLM-13 cells (setting [4]), < 10 nM.
With `O=C1CCC(N2C(=O)c3ccc(NCCNc4cccc(-n5cc(-c6cnc7ccccc7n6)cn5)c4)cc3C2=O)C(=O)N1` (stereo not drawn) [GS-353, 2-(2,6-Dioxopiperidin-3-yl)-5-((2-((3-(4-(quinoxalin-2-yl)-1H-pyrazol-1-yl)phenyl)amino)ethyl)amino)isoindoline-1,3-dione], the IC50 is 100 to 1000 nM in the test on MV4;11 cells (setting [7]), 10 to 100 nM in the test with MV4;11 cells (setting [8]), > 1000 nM in the test with MOLM-13 cells (setting [9]) and 10 to 100 nM in the test with MOLM-13 cells (setting [10]).
`CN1CCC(Nc2ccc(-c3cn([C@H]4C[C@H](CNc5ccc6c(c5)C(=O)N(C5CCC(=O)NC5=O)C6=O)C4)nc3C3CC3)nc2)CC1` (stereo partly drawn) [GS-303, 5-(((trans-3-(3-Cyclopropyl-4-(5-((1-methylpiperidin-4-yl)amino)pyridin-2-yl)-1H-pyrazol-1-yl)cyclobutyl)methyl)amino)-2-(2,6-dioxopiperidin-3-yl)isoindoline-1,3-dione]: the IC50 in the test with MV4;11 cells (setting [1]), in the test with MV4;11 cells (setting [2]), in the test with MOLM-13 cells (setting [3]) and with MOLM-13 cells (setting [4]) was > 1000 nM throughout.
Consider `N#Cc1cccc2nc(-c3cnn([C@H]4C[C@H](CCCNc5ccc6c(c5)C(=O)N(C5CCC(=O)NC5=O)C6=O)C4)c3)cnc12` (stereo partly drawn) [GS-233, 2-(1-(trans-3-(3-((2-(2,6-Dioxopiperidin-3-yl)-1,3-dioxoisoindolin-5-yl)amino)propyl)cyclobutyl)-1H-pyrazol-4-yl)quinoxaline-5-carbonitrile], for which the IC50 with MV4;11 cells (setting [1]) lay in the range of 100 to 1000 nM; in the test with MV4;11 cells (setting [2]), 10 to 100 nM; with MOLM-13 cells (setting [3]) it was 100 to 1000 nM; with MOLM-13 cells (setting [4]), 10 to 100 nM.
Consider `O=C1CCC(N2C(=O)c3ccc(NCCCC(=O)N4CCN(c5ccccc5)CC4)cc3C2=O)C(=O)N1` (stereo not drawn) [GS-319, 2-(2,6-Dioxopiperidin-3-yl)-5-((4-oxo-4-(4-phenylpiperazin-1-yl)butyl)amino)isoindoline-1,3-dione], for which the IC50 in the test on MV4;11 cells (setting [7]) was > 1000 nM; in the test on MV4;11 cells (setting [8]), > 1000 nM; in the test on MOLM-13 cells (setting [9]) it was > 1000 nM; in the test on MOLM-13 cells (setting [10]), 10 to 100 nM.
Consider `O=C1CCC(N2Cc3c(Nc4ccnc(Nc5ccc(CN6CCC(n7cc(-c8cnc9ccccc9n8)cn7)CC6)cc5)n4)cccc3C2=O)C(=O)N1` (stereo not drawn) [GS-031, 3-(1-Oxo-4-((2-((4-((4-(4-(quinoxalin-2-yl)-1H-pyrazol-1-yl)piperidin-1-yl)methyl)phenyl)amino)pyrimidin-4-yl)amino)isoindolin-2-yl)piperidine-2,6-dione], for which the IC50 with MV4;11 cells (setting [1]) is 10 to 100 nM; in the test with MV4;11 cells (setting [2]), < 10 nM; with MOLM-13 cells (setting [3]), 10 to 100 nM; with MOLM-13 cells (setting [4]), 10 to 100 nM.
Turning to `O=C1CCC(N2C(=O)c3ccc(NC[C@H]4C[C@H](n5cc(-c6ncccn6)c(C6CC6)n5)C4)cc3C2=O)C(=O)N1` (stereo partly drawn) [GS-599, 5-(((trans-3-(3-Cyclopropyl-4-(pyrimidin-2-yl)-1H-pyrazol-1-yl)cyclobutyl)methyl)amino)-2-(2,6-dioxopiperidin-3-yl)isoindoline-1,3-dione], the IC50 in the test with MV4;11 cells (setting [1]) lay within 100 to 1000 nM; in the test on MV4;11 cells (setting [5]), 10 to 100 nM; with MOLM-13 cells (setting [3]), 100 to 1000 nM; in the test with MOLM-13 cells (setting [6]), 100 to 1000 nM.
Consider `O=C1CCC(N2C(=O)c3ccc(N4CC(CCCCn5cc(-c6cnc7ccccc7n6)cn5)C4)cc3C2=O)C(=O)N1` (stereo not drawn) [GS-367, 2-(2,6-Dioxopiperidin-3-yl)-5-(3-(4-(4-(quinoxalin-2-yl)-1H-pyrazol-1-yl)butyl)azetidin-1-yl)isoindoline-1,3-dione], for which the IC50 in the test on MV4;11 cells (setting [1]), in the test with MV4;11 cells (setting [2]), in the test with MOLM-13 cells (setting [3]) and in the test on MOLM-13 cells (setting [4]) was > 1000 nM throughout.
As to `O=C1CCC(N2C(=O)c3ccc(NCCC[C@H]4C[C@H](n5cc(-c6ccccc6)cn5)C4)cc3C2=O)C(=O)N1` (stereo partly drawn) [GS-232, 2-(2,6-Dioxopiperidin-3-yl)-5-((3-(trans-3-(4-phenyl-1H-pyrazol-1-yl)cyclobutyl)propyl)amino)isoindoline-1,3-dione], the IC50 is 100 to 1000 nM with MV4;11 cells (setting [1]), 100 to 1000 nM in the test on MV4;11 cells (setting [2]), 100 to 1000 nM with MOLM-13 cells (setting [3]) and > 1000 nM with MOLM-13 cells (setting [4]).
Take `O=C1CCC(N2C(=O)c3ccc(NCCCCC(F)(F)C(=O)N4CCC(n5cc(-c6cnc7ccccc7n6)cn5)CC4)cc3C2=O)C(=O)N1` (stereo not drawn) [GS-520, 5-((5,5-difluoro-6-oxo-6-(4-(4-(quinoxalin-2-yl)-1H-pyrazol-1-yl)piperidin-1-yl)hexyl)amino)-2-(2,6-dioxopiperidin-3-yl)isoindoline-1,3-dione]: the IC50 in the test with MV4;11 cells (setting [1]), in the test with MV4;11 cells (setting [5]), in the test on MOLM-13 cells (setting [3]) and with MOLM-13 cells (setting [6]) was < 10 nM in each case.
Consider `CN1CCC(c2cccc3ncc(-c4cnn(C5CCN(C(=O)CCCCCNc6ccc7c(c6)C(=O)N(C6CCC(=O)NC6=O)C7=O)CC5)c4)nc23)CC1` (stereo not drawn) [GS-045, 2-(2,6-Dioxopiperidin-3-yl)-5-((6-(4-(4-(8-(1-methylpiperidin-4-yl)quinoxalin-2-yl)-1H-pyrazol-1-yl)piperidin-1-yl)-6-oxohexyl)amino)isoindoline-1,3-dione], for which the IC50 in the test on MV4;11 cells (setting [1]) was 100 to 1000 nM; in the test on MV4;11 cells (setting [2]), < 10 nM; in the test on MOLM-13 cells (setting [3]), > 1000 nM; with MOLM-13 cells (setting [4]), < 10 nM.
As for `O=C1CCC(N2C(=O)c3ccc(NC[C@H]4C[C@H](n5cc(-c6cccc(NC7CC(O)C7)n6)c(C6CC6)n5)C4)cc3C2=O)C(=O)N1` (stereo partly drawn) [GS-269, 5-(((trans-3-(3-Cyclopropyl-4-(6-((3-hydroxycyclobutyl)amino)pyridin-2-yl)-1H-pyrazol-1-yl)cyclobutyl)methyl)amino)-2-(2,6-dioxopiperidin-3-yl)isoindoline-1,3-dione], the IC50 is > 1000 nM with MV4;11 cells (setting [1]), 100 to 1000 nM with MV4;11 cells (setting [2]), > 1000 nM in the test on MOLM-13 cells (setting [3]) and > 1000 nM in the test on MOLM-13 cells (setting [4]).
As for `O=C1CCC(N2C(=O)c3ccc(NCCC[C@H]4C[C@H](n5cc(-c6cnc7ccccc7n6)c(C(F)(F)F)n5)C4)cc3C2=O)C(=O)N1` (stereo partly drawn) [GS-400, 2-(2,6-Dioxopiperidin-3-yl)-5-((3-(trans-3-(4-(quinoxalin-2-yl)-3-(trifluoromethyl)-1H-pyrazol-1-yl)cyclobutyl)propyl)amino)isoindoline-1,3-dione], the IC50 in the test on MV4;11 cells (setting [1]) lay within 10 to 100 nM; in the test with MV4;11 cells (setting [2]), 10 to 100 nM; in the test on MOLM-13 cells (setting [3]), 100 to 1000 nM; with MOLM-13 cells (setting [4]), 10 to 100 nM.

The record behind these values is patent publication US20240050428A1 (Cullgen (Shanghai), Inc., priority 2020, published 2024).
